One test relates to Escherichia coli. Kind of test: Antimicrobial activity Escherichia coli at 2 mg/mL after 24 hrs by agar diffusion technique. Particulars: read-out: DIZ. It counts as functional.
A further test has as its system Bacillus thuringiensis. As to the kind of experiment: Antimicrobial activity Bacillus thuringiensis at 2 mg/mL after 24 hrs by agar diffusion technique. It counts as functional. Particulars: read-out: DIZ.

On to `CC(=O)Nc1ccccc1N1C(=O)C2C3c4ccccc4C(c4ccccc43)C2C1=O` (stereo not drawn), for which the zone of inhibition at 2000 µg/mL with Escherichia coli came to 16 mm; in the test on Bacillus thuringiensis it was 18 mm.
For `O=C1C2C3c4ccccc4C(c4ccccc43)C2C(=O)N1c1ccccc1SSc1ccccc1N1C(=O)C2C3c4ccccc4C(c4ccccc43)C2C1=O` (stereo not drawn), the zone of inhibition at 2000 µg/mL in the test with Escherichia coli and in the test with Bacillus thuringiensis was 17 mm each time.
Turning to `O=C(N[C@H](CO)[C@H](O)c1ccc([N+](=O)[O-])cc1)C(Cl)Cl` [CHLORAMPHENICOL], the zone of inhibition at 2000 µg/mL turned out to be 20 mm in the test with Escherichia coli and 23 mm in the test on Bacillus thuringiensis.
`CC(=O)c1ccc(N2C(=O)C3C4c5ccccc5C(c5ccccc54)C3C2=O)cc1` (stereo not drawn): the zone of inhibition at 2000 µg/mL was determined as 12 mm with Escherichia coli and 15 mm in the test on Bacillus thuringiensis.
Consider `O=C1C2C3c4ccccc4C(c4ccccc43)C2C(=O)N1c1ccccc1S` (stereo not drawn), for which the zone of inhibition at 2000 µg/mL in the test on Escherichia coli came to 16 mm; with Bacillus thuringiensis it was 18 mm.
For `O=C1C2C3c4ccccc4C(c4ccccc43)C2C(=O)N1c1ccc(/N=N/c2ccccc2)cc1` (stereo not drawn), in that order: 14 mm and 13 mm.
Take `O=C1C2C3c4ccccc4C(c4ccccc43)C2C(=O)N1c1ccccc1O` (stereo not drawn): the zone of inhibition at 2000 µg/mL with Escherichia coli came to 16 mm; with Bacillus thuringiensis, 17 mm.
For `O=C1C2C3c4ccccc4C(c4ccccc43)C2C(=O)N1c1nc[nH]n1` (stereo not drawn), in that order: 15 mm and 17 mm.
The matching figures for `COC(=O)n1c(C2C3c4ccccc4C(c4ccccc43)C2C(=O)O)nc2ccccc21` (stereo not drawn): 13 mm and 17 mm.
The matching figures for `CC1(C)S[C@@H]2[C@H](NC(=O)[C@H](N)c3ccccc3)C(=O)N2[C@H]1C(=O)O` [AMPICILLIN]: 19 mm and 18 mm.
With `O=C(c1ccc(N2C(=O)C3C4c5ccccc5C(c5ccccc54)C3C2=O)cc1)c1nc2ccccc2[nH]1` (stereo not drawn), the values for the zone of inhibition at 2000 µg/mL with Escherichia coli and in the test with Bacillus thuringiensis were 23 mm and 20 mm, respectively.
The matching figures for `O=C1/C(=N\c2ccccc2N2C(=O)C3C4c5ccccc5C(c5ccccc54)C3C2=O)C=C(Nc2ccccc2N2C(=O)C3C4c5ccccc5C(c5ccccc54)C3C2=O)c2ccccc21` (stereo not drawn): 17 mm and 17 mm.
On to `CCOC(=O)c1c(N2C(=O)C3C4c5ccccc5C(c5ccccc54)C3C2=O)sc2c1CCCC2` (stereo not drawn), for which the zone of inhibition at 2000 µg/mL in the test on Escherichia coli stood at 14 mm; in the test on Bacillus thuringiensis it was 15 mm.
The matching figures for `Cc1ccc(S(=O)(=O)Oc2ccccc2N2C(=O)C3C4c5ccccc5C(c5ccccc54)C3C2=O)cc1` (stereo not drawn): 18 mm and 15 mm.
The matching figures for `Nc1ccccc1N1C(=O)C2C3c4ccccc4C(c4ccccc43)C2C1=O` (stereo not drawn): 12 mm and 17 mm.
Take `Cc1ccc2nc(N3C(=O)C4C5c6ccccc6C(c6ccccc65)C4C3=O)sc2c1` (stereo not drawn): the zone of inhibition at 2000 µg/mL with Escherichia coli amounted to 29 mm; with Bacillus thuringiensis, 26 mm.
Take `Cc1ccc(/N=N/c2ccc(N3C(=O)C4C5c6ccccc6C(c6ccccc65)C4C3=O)cc2)cc1` (stereo not drawn): the figures for the zone of inhibition at 2000 µg/mL in the test on Escherichia coli and with Bacillus thuringiensis were 14 mm and 11 mm, respectively.
The matching figures for `O=C1C2C3c4ccccc4C(c4ccccc43)C2C(=O)N1C(CO)(CO)CO` (stereo not drawn): 14 mm and 15 mm.
Take `O=C(c1ccc(N2C(=O)C3C4c5ccccc5C(c5ccccc54)C3C2=O)cc1)C(Br)Br` (stereo not drawn): the zone of inhibition at 2000 µg/mL in the test with Escherichia coli is 14 mm; with Bacillus thuringiensis, 17 mm.

For the origin of these results see ChEMBL document CHEMBL1157049, “Synthesis and study of some new 1,3-isoindoledione derivatives as potential antibacterial agents” (2010).
